Reference: US20240383922A1, “KRAS Modulating Compounds” (Gilead Sciences, Inc., priority 2023, published 2024)
Where two headings read alike, the source gives them in different places.

What was measured:
[1] = system: cellular pERK in MIA-PaCa-2 (KRAS-G12C) cell-line; assay: Cell based pERK assay (HTRF), MIA-PaCa-2; conditions: MIA-PaCa-2 (KRAS-G12C) cells, 2 hours incubation, read-out: MIAPaCa2 pERK EC50
Method in brief: (§1)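 AsPC-1 (5000/well) or MIA-PaCa-2, NCI-H441 and Kuramochi (7500/well) cells were seeded overnight, then treated with 1:3 serially diluted compound for 2 h at 37 °C. Lysis/detection reagent for phospho-ERK1/2 HTRF was added, plates stood overnight at room temperature, and the 665/615 nm ratio was read.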

[2] = system: cellular pERK in ASPC-1 (KRAS G12D) cell-line; assay: Cell based pERK assay (HTRF), ASPC-1; conditions: ASPC-1 (KRAS G12D) cells, 2 hours incubation
Method in brief: as §1

[3] = biological target: GDP-loaded KRAS-G12D (Homo sapiens (Human), UniProt P01116, G12D); assay: KRAS (GDP) biochemical TR-FRET probe displacement assay, KRAS-G12D; assay type: binding; conditions: 2 hours
GDP-loaded KRAS-G12D, sequence (P01116-2 other isoform, or with tags, fused parts or gaps G12D): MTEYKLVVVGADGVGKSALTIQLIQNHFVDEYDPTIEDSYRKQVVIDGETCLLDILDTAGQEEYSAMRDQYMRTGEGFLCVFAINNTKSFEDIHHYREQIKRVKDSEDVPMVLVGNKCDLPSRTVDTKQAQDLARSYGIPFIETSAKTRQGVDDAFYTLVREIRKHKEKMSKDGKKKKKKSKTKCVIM
Experimental: (§2) KRAS (GDP) Biochemical Assays:
(§3) Compounds were serially diluted (1:3) in DMSO. The LabCyte ECHO Acoustic dispenser was used to pre-spot the assay plates (384-well Non-Binding Surface plates, Corning, Catalog #3824) with 50 nL of compound. 5 μL of 2× enzyme concentration was added to the pre-spotted plates and incubated for 30 minutes before adding 5 μL of 2× concentration of Eu-streptavidin and Cy-5 labelled probe (10 μL final reaction volume). The plates were incubated at room temperature for 2 hours before measuring TR-FRET ratio (665 nm/615 nm) on the Envision multimode plate reader. The ratios were normalized to a positive (saturating concentration of known inhibitor) and negative (DMSO) control and plotted against the log of compound concentration.

[4] = biological target: GDP-loaded KRAS-G12V (Homo sapiens (Human), UniProt P01116, G12V); assay: KRAS (GDP) biochemical TR-FRET probe displacement assay, KRAS-G12V; assay type: binding; conditions: 2 hours
GDP-loaded KRAS-G12V, sequence (P01116-2 other isoform, or with tags, fused parts or gaps G12V): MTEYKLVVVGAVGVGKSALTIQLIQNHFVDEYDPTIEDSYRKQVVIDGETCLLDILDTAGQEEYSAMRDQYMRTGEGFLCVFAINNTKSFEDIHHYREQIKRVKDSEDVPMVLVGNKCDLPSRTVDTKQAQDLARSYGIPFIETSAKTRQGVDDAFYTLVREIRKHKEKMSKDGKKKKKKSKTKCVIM
Experimental: as §2, §3

[5] = biological target: GDP-loaded wild-type KRAS (WT) (Homo sapiens (Human), UniProt P01116); assay: KRAS (GDP) biochemical TR-FRET probe displacement assay, WT KRAS; assay type: binding; conditions: 2 hours
GDP-loaded wild-type KRAS (WT), sequence (P01116-2 other isoform, or with tags, fused parts or gaps): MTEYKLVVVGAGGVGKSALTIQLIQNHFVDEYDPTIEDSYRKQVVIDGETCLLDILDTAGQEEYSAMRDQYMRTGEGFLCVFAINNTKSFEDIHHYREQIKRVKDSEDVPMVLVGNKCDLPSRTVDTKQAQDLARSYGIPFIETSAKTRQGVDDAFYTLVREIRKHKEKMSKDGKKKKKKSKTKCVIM
Experimental: as §2, §3

[6] = system: cellular pERK in NCI-H441 (KRAS-G12V) cell-line; assay: Cell based pERK assay (HTRF), NCI-H441; conditions: NCI-H441 (KRAS-G12V) cells, 2 hours incubation
Method in brief: as §1

[7] = system: cellular pERK in Kuramochi (WT KRAS) cell-line; assay: Cell based pERK assay (HTRF), Kuramochi; conditions: Kuramochi (WT KRAS) cells, 2 hours incubation
Method in brief: as §1

[8] = biological target: GDP-loaded KRAS-G12C (Homo sapiens (Human), UniProt P01116, G12C); assay: KRAS (GDP) biochemical TR-FRET probe displacement assay, KRAS-G12C; assay type: binding; conditions: 2 hours
GDP-loaded KRAS-G12C, sequence (P01116-2 other isoform, or with tags, fused parts or gaps G12C): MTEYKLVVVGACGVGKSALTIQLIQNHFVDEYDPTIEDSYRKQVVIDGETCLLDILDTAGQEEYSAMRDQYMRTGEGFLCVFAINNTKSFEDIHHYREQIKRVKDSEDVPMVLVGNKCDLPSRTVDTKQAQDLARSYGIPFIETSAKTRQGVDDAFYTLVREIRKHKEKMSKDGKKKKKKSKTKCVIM
Experimental: as §2, §3

SMILES | EC50 ([1]; Homo sapiens) | EC50 ([2]; Homo sapiens, ASPC1) | IC50 [3] | IC50 [4] | IC50 [5] | EC50 ([6]; Homo sapiens) | EC50 [7] | IC50 [8] | EC50 [1] | EC50 ([2]; read-out: AsPC1 pERK EC50) | EC50 [6]
C#Cc1c(F)ccc2cc(N)cc(-c3nc4c5c(nc(OC[C@@]67CCCN6[C@H](COc6nccnc6C(F)F)CC7)nc5c3F)N3CCCOC[C@@H]3CC4)c12 [Example 7-6] | 3.88 nM | 32.1 nM | 3.15 nM | 1.2 nM | 1.93 nM | 11.8 nM | 4.17 nM | 1.09 nM | – | – | –
C#Cc1c(F)ccc2cc(N)cc(-c3c(F)c4c5c(nc(OC[C@@]67CCCN6C[C@H](F)C7)nc5c3F)N3CCCOC[C@@H]3CC4)c12 [Example 7-12] | 8.18 nM | 104 nM | 24.6 nM | 15.8 nM | 30 nM | 32.6 nM | 7.88 nM | 4.58 nM | – | – | –
C#Cc1c(F)ccc2cc(O)cc(-c3nc4c5c(nc(OC[C@@]67CCCN6[C@H](COc6nccnc6C(F)C(C)F)CC7)nc5c3F)N3CCCOC[C@@H]3CC4)c12 (stereo partly drawn) [Example 6-14] | 0.32 nM | 3.5 nM | 0.09 nM | 0.09 nM | 0.05 nM | 2.07 nM | 3.46 nM | 0.08 nM | – | – | –
C#Cc1c(F)ccc2cccc(-c3nc4c5c(nc(OC[C@@]67CCCN6[C@H](COC(=O)N(CC)CC)CC7)nc5c3F)N3CCCOC[C@@H]3CC4)c12 [Example 16-1, ((3S,7aS)-7a-((((S)-2-(8-ethynyl-7-fluoronaphthalen-1-yl)-1-fluoro-4,5,5a,6,9,10-hexahydro-8H-7-oxa-3,10a,11,13-tetraazanaphtho[1,8-ab]heptalen-12-yl)oxy)methyl)hexahydro-1H-pyrrolizin-3-yl)methyl diethylcarbamate] | 231 nM | 647 nM | 42.3 nM | 30.9 nM | – | 543 nM | 242 nM | 33.1 nM | – | – | –
C#Cc1c(F)ccc2cccc(-c3nc4c5c(nc(OCC6(CN7CCCCC7)CC6)nc5c3F)N3CCCOC[C@@H]3CC4)c12 [Example 15-2] | 115 nM | 216 nM | 22.2 nM | 17.1 nM | – | 272 nM | 85.9 nM | 13.4 nM | – | – | –
CCc1c(F)ccc2cc(O)cc(-c3nc4c5c(nc(OC[C@@]67CCCN6C[C@H](F)C7)nc5c3F)N3CCOCCC3CC4)c12 (stereo partly drawn) [Example 8-1, 5-ethyl-6-fluoro-4-(1-fluoro-12-(((2R,7a5)-2-fluorotetrahydro-1H-pyrrolizin-7a(5H)-yl)methoxy)-5,5a,6,7,9,10-hexahydro-4H-8-oxa-3,10a,11,13-tetraazanaphtho[1,8-ab]heptalen-2-yl)naphthalen-2-ol] | – | – | – | – | – | – | 3.19 nM | – | 7.72 nM | 42.4 nM | 13 nM

Stronger by EC50 [7], values ahead:

EC50 ([1]; Homo sapiens) | EC50 ([2]; Homo sapiens, ASPC1) | IC50 [3] | IC50 [4] | IC50 [5] | EC50 ([6]; Homo sapiens) | EC50 [7] | IC50 [8] | EC50 [1] | EC50 ([2]; read-out: AsPC1 pERK EC50) | EC50 [6] | SMILES
0.06 nM | 0.44 nM | 0.04 nM | 0.05 nM | 0.06 nM | 0.2 nM | 1.14 nM | 0.05 nM | – | – | – | C#Cc1c(F)ccc2cc(O)cc(-c3nc4c5c(nc(OC[C@@]67CCCN6C/C(=C\F)C7)nc5c3F)N3CCCOC[C@@H]3CC4)c12 [Example 6-23]
4.12 nM | 17.9 nM | 2.73 nM | 1.78 nM | 3.87 nM | 4.46 nM | 2.09 nM | 0.9 nM | – | – | – | C#Cc1c(F)ccc2cc(N)cc(-c3nc4c5c(nc(OC[C@@]67CCCN6C[C@H](F)C7)nc5c3F)N3CCCOC[C@@H]3CC4)c12 [Example 7-1, 5-ethynyl-6-fluoro-4-((S)-1-fluoro-12-(((2R,7aS)-2-fluorotetrahydro-1H-pyrrolizin-7a(5H)-yl)methoxy)-4,5,5a,6,9,10-hexahydro-8H-7-oxa-3,10a,11,13-tetraazanaphtho[1,8-ab]heptalen-2-yl) naphthalen-2-amine]
0.23 nM | 11.7 nM | 0.15 nM | 0.1 nM | 0.06 nM | 2.14 nM | 1.59 nM | 0.06 nM | – | – | – | C#Cc1c(F)ccc2cc(O)cc(-c3nc4c5c(nc(OC[C@@]67CCCN6C[C@H](F)C7)nc5c3F)N3CCOCC[C@@H]3CC4)c12 (single isomer, unassigned) [Example 9-2]
